How the values were obtained:
[1] = target: T1, Three-prime repair exonuclease 1 (Mus musculus, UniProt Q91XB0)
T1 sequence (Q91XB0 whole entry): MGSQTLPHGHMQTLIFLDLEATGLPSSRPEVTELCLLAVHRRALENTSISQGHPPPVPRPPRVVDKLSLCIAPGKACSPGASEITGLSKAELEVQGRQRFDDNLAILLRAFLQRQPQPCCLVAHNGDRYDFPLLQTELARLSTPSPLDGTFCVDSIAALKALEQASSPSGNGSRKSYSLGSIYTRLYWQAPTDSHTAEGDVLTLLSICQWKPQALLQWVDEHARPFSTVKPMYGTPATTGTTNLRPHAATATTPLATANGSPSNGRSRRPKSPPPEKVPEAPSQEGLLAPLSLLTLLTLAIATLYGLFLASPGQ

[2] = target: T2, Three-prime repair exonuclease 1 (Homo sapiens, UniProt Q9NSU2); experiment: Exonuclease Assay
T2 sequence (Q9NSU2 whole entry): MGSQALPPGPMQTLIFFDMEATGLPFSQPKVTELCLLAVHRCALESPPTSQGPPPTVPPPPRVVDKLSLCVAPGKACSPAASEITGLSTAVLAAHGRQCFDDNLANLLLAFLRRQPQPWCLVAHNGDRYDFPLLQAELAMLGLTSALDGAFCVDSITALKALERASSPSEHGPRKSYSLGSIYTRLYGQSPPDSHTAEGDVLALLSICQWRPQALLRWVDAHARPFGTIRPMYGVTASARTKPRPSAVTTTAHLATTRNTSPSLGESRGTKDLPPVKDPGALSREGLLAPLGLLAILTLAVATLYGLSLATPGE
Protocol: To evaluate the effect of compounds on TREX1 activity, test compounds were serially diluted (11-point, 3-fold) from 10 mM stock solutions and delivered to 384-well low-volume assay plates in 80 nL DMSO using an acoustic dispenser. Next, 4 μL of human TREX1 (0.5 nM), or murine TREX1 (1 nM), diluted in assay buffer (20 mM Tris pH 7.5, 5 mM MgCl2, 100 μg/mL BSA, 0.002% Triton X-100, 2 mM DTT), was added to the assay plate. After incubating for 30 minutes, 4 μL of labeled DNA oligonucleotide (500 nM) in assay buffer was added to initiate TREX1 exonuclease activity. The reaction was allowed to proceed for 45 minutes at room temperature prior to the addition of 4 μL of 150 mM EDTA to halt TREX1 activity. Assay plates were equilibrated for an additional 30 minutes and read on an EnVision Plate Reader (Perkin Elmer) to measure fluorescence emission at 535 nm following excitation at 485 nm. Fluorescence was plotted as a function of log molar compound concentration and fit to four-parameter dose-response equation to determine compound IC50.

Row | Compound | IC50 [1] | IC50 [2]
1 | N[C@@H]1C[C@H]2C(=O)N([C@H](CO)C(=O)NCc3ccc(Cl)c(Cl)c3)CCC(CCc3ccccc3)N2C1 (some centres undefined) [US11306098, Example 3] | < 1 µM | < 1 µM
2 | CC(C)C[C@H](C(=O)NCc1ccc(Cl)c(Cl)c1)N1CCC(CCc2ccccc2)N2C[C@H](N)C[C@H]2C1=O (some centres undefined) [US11306098, Example 1] | < 1 µM | < 1 µM

— BindingDB's records for patent US11306098 (Venenum Biodesign, 2022)
